“Also recorded” adds a separate entry of the source.
How the values were obtained:
[1] = tested on: PEP005-induced HIV reactivation in J-Lat A1 cells; assay: Suppression of PEP005-induced HIV reactivation in J-Lat A1 cells (GFP expression by RT-qPCR); format: cell-based; settings: 6 nM PEP005, PKC inhibitor 1, 2 or 5 μM, Bay 11-7082 2.5 μM
Protocol: FIG. 4: PEP005-induced HIV reactivation is mediated through PKCδ/θ-IκBα/ε-NF-κB signaling. (A) PEP005-induced HIV reactivation is suppressed by inhibition of the PKCδ/θ. J-Lat A1 cells were treated with 6 nM of PEP005 in the presence of 1, 2 or 5 μM of PKC inhibitor (PKCθ/δ inhibitor; Milipore/Calbiochem (539649)) and evaluated for GFP expression by RT-qPCR. (B) NF-κB inhibition partially suppresses PEP005-induced HIV reactivation in J-Lat A1 cells. J-Lat A1 cells were treated with 6 nM of PEP005 in the presence of 2.5 μM Bay 11-7082, an NF-κB inhibitor, and were evaluated for GFP expression by RT-qPCR. (C) J-Lat A1 cells were treated with PEP005 or alternatively with PKC inhibitor alone or in the presence of PEP005 and the relative binding of NF-κB to the HIV LTR was determined using ChIP-qPCR.
Real-time PCR analysis of GFP or HIV gene expression: Total RNA was isolated from J-Lat A1 cells or U1 cells using the RNeasy Kit (Qiagen) followed by digestion with DNase I (Invitrogen). First strand cDNA was synthesized using Superscript II (Invitrogen). Real-time PCR (TaqMan) was performed on a ViiA 7 detector using the following primer/probe set: for J-Lat A1 cells, primer 1: 5′-[…]-3′ (SEQ ID NO:5), primer 2: 5′-[…]-3 ‘ (SEQ ID NO:6), probe 5’-FAM CTACAAGACCC G[…]-3′ (SEQ ID NO:7), for U1 cells HIV 5′ LTR primers/probe were used (see above). […]

[2] = tested on: latent HIV in J-Lat A1 cells; assay: HIV latency reactivation in J-Lat A1 cells (GFP expression by flow cytometry); format: cell-based; settings: GFP, 24 h, PEP005 2-40 nM, GSK343 2 μM
Protocol: FIG. 1: PEP005 induces reactivation of HIV latency in vitro. J-Lat A1 cells were exposed to different concentrations of PEP005 and virus reactivation was measured by GFP expression using flow cytometry. Cell viability was determined by Live/Dead dye staining. (A) Chemical Structure of PEP005. […] (D) PEP005 potently reactivates latent HIV in cell lines compared with other LRAs. J-Lat A1 cells were treated with 10 nM PEP005, 500 nM SAHA, 2 μM JQ1, 2 μM GSK343, 10 ng/ml TNF, 2 μM Prostratin, or 5 ng/ml PMA for 24 hours and the percentage of GFP expression was evaluated using flow cytometry. *, p<0.05; **, p<0.01.
FIG. 2: PEP005 synergizes with other latency reversing agents in reactivating latent HIV. (A) J-Lat A1 cells were treated with 5 ng/ml PMA, 6 nM PEP005, 500 nM SAHA, 2 μM JQ1, 2 μM GSK343, or 10 μM Prostratin alone or in combination with 6 nM PEP005 for 24 hours and the percentage of GFP expressing cells was determined using flow cytometry. **, p<0.01; *, p<0.05 compared with control treatment; **, p<0.01; *, p<0.05 compared with PEP005 treatment alone. (B) The U1 cells were treated with 5 ng/ml PMA, 6 nM PEP005, 500 nM SAHA, 2 μM JQ1, or 2 μM GSK343, alone or in combination with 6 nM PEP005 for 24 hours and the HIV transcription was evaluated using RT-qPCR. Numbers indicate fold-increase over the control. **, p<0.01; *, p<0.05 compared with control treatment; **, p<0.01; *, p<0.05 compared with PEP005 treatment alone. […] The Bliss independence model was utilized for calculation of synergy for LRA combinations. Dotted horizontal line signifies pure additive effect (Δfaxy=0). Synergy is defined as Δfaxy>0 while Δfaxy<0 indicates antagonism. Statistical significance was determined using a one tailed ratio t-test comparing predicted and observed drug combination effects. *p<0.05; **p<0.01.
J-Lat A1 cells (harboring a single copy of latent HIV LTR and one copy of green fluorescent protein gene under the HIV LTR control) or U1 cells (harboring two latent HIV genomes with defective Tat gene) were cultured in RPMI1640 medium with 10% fetal bovine serum (FBS) and 1% Pen/strep in a 37° C. incubator containing 5% CO2 [24,31]. Both of the cell lines were obtained from NIH AIDS Reagent Program. For reactivation of HIV LTR, cells were treated with PMA (Sigma), JQ1 (Biovision), Prostatin (Sigma), SAHA (Santa Cruz), TNF-α (BD), GSK343 (Sigma), or PEP005 (Tocris Bioscience) for 24 h. HIV reactivation was quantified by GFP expression using flow cytometry and the data were analyzed using FlowJo Software for J-Lat A1 cells, or by quantitative RT-PCR (RT-qPCR) for J-Lat A1 and U1 cells. Cell viability was evaluated using Live/Dead dye (Life Technologies) by flow cytometry. So far, there is not a single in vitro cell culture model available that captures all the features of HIV latency. However, PKC agonists seem to reactivate latent HIV in all the cell culture models of viral latency. Similar to other J-Lat cell lines, the J-Lat A1 clone has been widely used by researchers for HIV latency studies. The T-cell-derived J-Lat A1 cells harbor one copy of a construct containing a Tat and a green fluorescent protein (GFP) gene framed by the 5′ and 3′ HIV LTR [32]. The J-Lat A1 cells also contain the TAR loop located within the R region of HIV LTR (nt +1 to +60), which provides an opportunity for Tat-TAR interactions for the modulation of transcription and transcriptional elongation. […]

[3] = tested on: PKCδ/θ-IκBα/ε-NF-κB signaling; settings: IngB treatment; cited from earlier work

In the case of Cc1ccc(S(=O)(=O)/C=C/C#N)cc1 [Bay-11-7082], the “reduction of PEP005-induced latent HIV reactivation” value [1] is reported as “approximately 50%”.

For CCCc1cc(C)[nH]c(=O)c1CNC(=O)c1cc(-c2ccnc(N3CCN(C)CC3)c2)cc2c1cnn2C(C)C [GSK343], the “induction of HIV expression, agent alone” value [2] was “failed to induce HIV expression; also recorded: could not effectively induce HIV expression; also recorded: no capacity to reactivate latent HIV by itself”.

In the case of CCCCCC(=O)O[C@H]1C(C)=C[C@]23C(=O)[C@@H](C=C(CO)[C@@H](O)[C@]12O)[C@H]1[C@@H](C[C@H]3C)C1(C)C [IngB, ingenol-3-hexanoate], the “expression of NF-κB/p65 protein, earlier report [24]” value [3] is given as “increased expression of NF-κB/p65 protein”.

From patent publication US10376486B2, “Compositions and methods for reactivating latent viral infections” (priority 2014, dated 2019)
